Experimental data reported in publication PMC4949444 (Scientific Reports, 2016).

Columns and labels:
[1] = test system: PPARγ; assay type: cell-based; conditions: HEK293, GAL4-PPARγ + GAL4-luc, 6 hours
Method: The indicated concentrations were tested and results were plotted to obtain the polynomial trend on a logarithmic range. IC50 values are indicated within the graph. […] HEK293 cells were co-transfected with GAL4-PPARγ and GAL4-luc and incubated with the indicated compound concentrations for 6 hours prior to luciferase activity determination. Results are expressed as the fold induction ± S.D. relative to untreated control. […] All experiments are shown as mean ± S.D. from at least three independent experiments. Statistics: *^,#,†p < 0.05, **^,##,††p < 0.01 and ***^,###p < 0.001. […] To study PPARγ transcriptional activity HEK293 cells were seeded in 24-well plates and transiently co-transfected with the expression vector GAL4-PPARγ and the luciferase reporter vector GAL4-luc using Roti-Fect (Carl Roth, Karlsruhe, Germany) following the manufacturer’s instructions. To correct for transfection efficacy, 100 ng Renilla luciferase (pRL-CMV) was also cotransfected. After stimulation, the luciferase activities were quantified using Dual-Luciferase Assay (Promega, Madison, WI, USA).

[2] = target: T1, CB2 receptor (Homo sapiens, UniProt P34972); assay: CB2 receptor binding, [3H]CP55940 competition; conditions: data not shown; read-out: predicted Ki, CB2 receptor
T1 construct: purchased Perkin-Elmer Life and Analytical Sciences, Boston, MA; host or cells: HEK293 EBNA cells stably expressing the receptor
Method: CB1 and CB2 receptor binding affinities were determined by competition studies using [^3H]CP55940 as radioligand and commercial membrane preparations of HEK293 EBNA cells stably expressing the respective receptor type (Perkin-Elmer Life and Analytical Sciences, Boston, MA), following a procedure previously described.

[3] = test system: Human mesenchymal stem cells (MSC); assay: Adipogenic differentiation of human mesenchymal stem cells; assay type: cell-based
Source text: Figure 2 Effect of VCE-003.2 on adipogenic differentiation. Human mesenchymal stem cells (MSC) were differentiated in adipogenic medium (AM) in the presence of RZG or […] VCE-003.2 and adipogenic markers were characterized. (a) Quantification of oil red (ORO) positive cells after 21 days of differentiation. (b) Representative images of accumulated fat vesicles stained with oil red (Bar size, 50 μm). (c) Gene expression of PPAR-γ2, LPL, CEBPA, ADIPOQ and FABP4 in MSCs differentiated during 18 days. Data represent the percentage of increase over AM considered as the 100% of adipogenic induction. Experiments were performed from three different human MSC preparations each one obtained from a different bone marrow sample.
Reina Sofia University Hospital review board.

[4] = test system: 3NP-lesioned C57BL/6 mice; assay: 3-nitropropionic acid (3NP) model of Huntington's disease; assay type: in vivo; conditions: for COX-2 (2expΔΔct) / IL-6 (2expΔΔct) / TNF-α (2expΔΔct): striatum mRNA; for % GSH / % SOD activity / %Catalase activity: striatum
Method: Figure 7 VCE-003.2 is neuroprotective in 3NP-intoxicated mice. (a) Behavioural score was determined 12 hours after 3NP intoxication. Mice were treated with VCE-003.2 (20 mg/Kg) alone or combined with T0070907 (5 mg/kg) as indicated. Animals were also treated separately with either VCE-003.2 or T0070907 alone. Hind limb clasping, general locomotor activity, hind limb dystonia and kyphosis were rated from 0 to 2 based on severity (score 0 indicates normal function and 2 indicates the most severe affected function). Values are expressed as means ± SEM (n = 6). (b) Representative images of Nissl staining performed on coronal striatal brain sections from the same mice groups. Photomicrographs of NeuN (Bar size, 50 μm) Iba-1 and glial fibrillary acidic protein (GFAP) immunostained sections through the different group of mice are also shown. (c) Quantification of the different markers was performed with Image J software. Total average number of neurons (NeuN^+), microglia (Iba1^+) and astrocytes (GFAP^+) is shown. Values are expressed as means ± SEM (n = 6). *p < 0.05, **p < 0.01, ***p < 0.001 vs. Vehicle; ^#p < 0.05, ^##p < 0.01, ^###p < 0.001 vs. 3NP; †p < 0.05, ^††p < 0.01, ^†††p < 0.001 vs. the 3NP + VCE-003.2 group.
Mice were housed under standard conditions (12-h light/dark cycle) in groups with access to food and water ad libitum. All experiments were performed in accordance with European Union guideline and approved by the Animal Research Ethic Committee of Córdoba University (2014PI/017) (3NP model) and by the Animal Research Ethic Committee of Complutense University (CEA-UCM 73/2012) (QA model). Procedures were designed to minimize the number of animals used and their suffering. Excitotoxicity was induced by intrastriatal quinolinic acid (QA) administration (100 nmol in 1 μL PBS solution, unilaterally) as previously described[41] at the following coordinates: +0.6 posterior to bregma, +1.85 medio-lateral and -2.7 dorso-ventral to dura, in 12-week-old CD1 male mice (Harlan Ibérica, Barcelona, Spain). Pharmacological manipulation with VCE-003.2 (10 mg/kg body weight) was performed i.p. daily in 2% Tween 20 and 3% DMSO in saline buffer until sacrifice. Control animals received the corresponding vehicle injections. Motor function was assessed by RotaRod analysis conducted with acceleration from 4 to 40 rpm over a period of 570 s in an LE8200 device (Harvard Apparatus, Barcelona, Spain). […] 3NP-treated animals and their respective non-lesioned controls (injected with PBS) were used for pharmacological studies with VCE-003.2. Treatments consisted of 4 i.p. injections every 24 h with 20 mg/kg VCE-003.2 or vehicle (4% DMSO plus 6,2% Tween 20 in saline buffer), with the first and the last injections 30 min before the first and the last injections of 3NP, respectively. In some experiments, mice received a combination of VCE-003.2 and the PPARγ antagonist T0070907 (5 mg/kg) injected 15 minutes before VCE-003.2. In 3NP-lesioned mice, motor activity, hindlimb clasping, dystonia, and truncal dystonia were evaluated following previously described procedures. All behavioural tests were conducted prior to drug injections to avoid acute effects of the compounds under investigation and all animals were euthanized 12 h after the last injection of 3NP and their brains removed. The right hemispheres were used to dissect the striatum which was frozen in RNAlater (Sigma-Aldrich) and stored at −80 °C for biochemical analyses. The left hemispheres were fixed in fresh 4% paraformaldehyde (in 0.1 M PBS) for 48 h at 4 °C and embedded in paraffin wax for staining and immunohistochemical analysis. In all experiments, at least 6 animals were used per experimental group.
Free floating coronal brain slices ([…]) were processed as previously described. […]

[5] = test system: osteoblast-differentiating MSCs; assay: Osteoblast differentiation of human mesenchymal stem cells; conditions: osteoblastogenic medium, 14 days of differentiation
Source text: The Reina Sofia University Hospital Review Board approved this study and the procedures followed were in accordance with the ethical standards of the ethic committee from Hospital Reina Sofía and with the Declaration of Helsinki. Bone marrow donors were recruited by the Haematology Service. All subjects gave their informed consent so that the bone marrow aliquots extracted for clinical purposes could also be used for mesenchymal bone marrow research. […] Adipogenic and osteoblast differentiation was performed as described[22]. Treatment with RZG and VCE-003.2 started at the same time as the differentiation process. […] The images captured with the light microscope were analyzed with the ImageJ Software (NIH; Bethesda, MD, USA).
Cells were collected at day 14 of differentiation and total RNA was extracted using the High Pure RNA Isolation kit (Roche Diagnostics). The total amount of RNA extracted was quantified using NanoDrop 2000 (Thermo Fisher Scientific Inc). Total RNA (1 μg) was retrotranscribed using the iScriptTM cDNA Synthesis Kit (Bio-Rad; Hercules, CA, USA), and the cDNA generated was analyzed by real-time PCR, using the iQ^TM SYBR Green Supermix (Bio-Rad; Hercules, CA, USA). Real-time PCR to quantify the mRNA of osteoblastic and adipocityc markers was performed using a CFX96 Real-time PCR Detection System (Bio-Rad; Hercules, CA, USA). […]

[6] = 3NP-lesioned mice, + T0070907 5 mg/kg
[7] = 3NP-treated mice, VCE-003.2 20 mg/kg
[8] = 3NP-treated mice, VCE-003.2 20 mg/kg + T0070907 5 mg/kg
[9] = substance alone, mean ± SEM n=6
[10] = 3NP-treated mice, VCE-003.2 20 mg/kg, % of vehicle control
[11] = substance alone, % of vehicle-treated control

T1 sequence (P34972 whole entry): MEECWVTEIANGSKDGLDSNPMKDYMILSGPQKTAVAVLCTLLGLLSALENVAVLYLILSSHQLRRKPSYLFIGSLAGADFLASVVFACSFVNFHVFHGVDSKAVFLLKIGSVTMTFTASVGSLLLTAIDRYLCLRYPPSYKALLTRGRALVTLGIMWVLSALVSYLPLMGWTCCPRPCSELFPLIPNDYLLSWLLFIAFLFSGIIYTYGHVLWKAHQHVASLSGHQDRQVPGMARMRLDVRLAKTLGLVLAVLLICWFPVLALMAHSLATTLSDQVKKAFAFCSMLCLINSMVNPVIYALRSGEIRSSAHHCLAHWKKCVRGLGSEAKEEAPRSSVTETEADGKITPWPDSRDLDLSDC

With `CCCCCC1=C(NCC)C(=O)C(C/C=C(\C)CCC=C(C)C)=C(O)C1=O` [VCE-003.2] the “PPARγ transcriptional activity (transactivation)” value [1] was “induced PPARγ transactivation in a concentration-dependent manner”, the Ki [2] was > 40 µM and the “percentage of Oil Red O positive cells” value ([3]; 1 and 2.5 μM vs 1 μM RZG, adipogenic medium, 21 days) was “never achieved the percentage of Oil Red O positive cells (ORO^+) induced by RZG”. The “lipid droplets (morphological examination)” value ([3]; compared to RZG) was “lipid droplets are less numerous and smaller”, the “expression of adipogenic differentiation markers PPARγ, LPL, CEBPA, ADIPOQ, FABP4” value ([3]; compared to cells treated with RZG) was “sensibly lower” and the “loss of Nissl and NeuN+ cells in striatum” value ([4]; 3NP-lesioned mice, 20 mg/kg) was “rescued the loss of Nissl and NeuN^+-cells”. For the same molecule, the “microgliosis and astrogliosis (Iba1, GFAP)” value ([4]; 3NP-lesioned mice, 20 mg/kg) was “reduced 3NP-induced microgliosis and astrogliosis”, the “motor deficits: hindlimb clasping, dystonia, kyphosis” value ([4]; 3NP-lesioned mice, 20 mg/kg i.p.) was “improved the motor deficits of 3NP-lesioned mice by reducing hindlimb clasping, dystonia and kyphosis” and the “effect on motor deficits with PPARγ antagonist co-administered” value [4, 6] was “abrogated”. The “neuroprotective activity (Nissl, NeuN) with T0070907 co-administered” value [4, 6] was “prevented the activity of VCE-003.2”, the “behavioural score, substance alone” value ([4]; mice given the substance alone) was “Neither VCE-003.2 nor T0070907 alone influenced the behavior of the animals” and the “COX-2 (2expΔΔct)” value [4, 7] was 2.7 ± 0.07^### 2expΔΔct. The “IL-6 (2expΔΔct)” value [4, 7] was 1.79 ± 0.2^### 2expΔΔct, the “TNF-α (2expΔΔct)” value [4, 7] was 1.56 ± 0.576^## 2expΔΔct and the “COX-2 (2expΔΔct)” value [4, 8] was 8.91 ± 1^† 2expΔΔct. The “IL-6 (2expΔΔct)” value [4, 8] was 8.18 ± 2.9 2expΔΔct, the “TNF-α (2expΔΔct)” value [4, 8] was 3.83 ± 1.17 2expΔΔct and the “COX-2 (2expΔΔct)” value [4, 9] was 1.31 ± 0.75 2expΔΔct. For the same molecule, the “IL-6 (2expΔΔct)” value [4, 9] was 1.14 ± 0.65 2expΔΔct, the “TNF-α (2expΔΔct)” value [4, 9] was 1.15 ± 058 2expΔΔct and the “% GSH” value [4, 8] was 121.48 ± 15.29%. For the same molecule, the “% SOD activity” value [4, 8] was 121.46 ± 37.04%, the “%Catalase activity” value [4, 8] was 89.08 ± 5.7% and the “% GSH” value [4, 10] was 111.7 ± 12.6%. For the same molecule, the “% SOD activity” value [4, 10] was 221.18 ± 26.91^# %, the “%Catalase activity” value [4, 10] was 88.82 ± 6.75^# % and the “% GSH” value [4, 11] was 101.81 ± 14.59%. For the same molecule, the “% SOD activity” value [4, 11] was 115.62 ± 27.34%, the “%Catalase activity” value [4, 11] was 99.05 ± 6.1% and the “expression of osteogenic differentiation markers Runx2, SP7, ALP, IBSP” value [5] was “mild and did not inhibit the expression of osteogenic differentiation markers”.
